Measured values as given in patent US20130245047A1, “COMPOSITIONS FOR TREATING CANCER-RELATED FATIGUE AND METHODS OF SCREENING THEREOF” (TENERA THERAPEUTICS, LLC, priority 2011, published 2013).

What was measured:
BALB/c mice = assay: etoposide-induced fatigue model (CTRF animal model), activity, weight and blood chemistry; format: in vivo
Method: An animal model has been developed to screen for drugs which are efficacious in the treatment, alleviation and/or prevention of chronic fatigue syndrome, such as cancer treatment-related fatigue (“CTRF”). […] The animal's overall activity is measured using a running wheel or other method. In addition, the animal's day and night activity profiles are measured to determine when disrupted sleep architecture is present. This is characterized by disruption of the REM sleep as well as fatigue and cognitive dysfunction. The animal's percent daily weight change is also determined. The levels of cytokines such as IL-6 can be measured, since these are typically elevated with chemotherapy treatment. Results can be provided as percent change of total activity, percent change relative to light exposure, percent weight change over a defined time period (day, week), and combinations thereof.
The model can be created using any one of a number of different drugs, alone or in combination with additional therapy, such as one or more other chemotherapeutics or radiation. The in vitro and in vivo models described above can be used to identify compounds that effectively treat CTRF. In one embodiment, etoposide is administered in a dosage of 50 to 60 mg/kg to cause CTRF. In this study etoposide was administered by a single intraperitoneal injection on the first day of the study.
(§1) For the etoposide-induced fatigue model (FIGS. 2-7), BALB/c mice (obtained and housed as described above) were divided into groups of 10 animals per group: 1. control (untreated) mice, 2. mice treated with a single intraperitoneal dose of 60 mg/kg etoposide on day 1, and 3. mice treated with a single intraperitoneal dose of 60 mg/kg etoposide on day 1, followed by daily oral doses of pentoxifylline administered as a 1 mg/kg dose in the drinking water throughout the study. The animals were then assessed for their level of activity relative to time of day (day and night); total locomotor activity; blood chemistry (hemoglobin, red blood cells, white blood cells); over time in weeks.

female BALB/c mice = assay: LPS-induced fatigue model, daily activity counts; format: in vivo; conditions: single intraperitoneal dose of 2.5 mg/kg lipopolysaccharide vs saline control; FIG. 1
Method: For the LPS-induced fatigue model shown in FIG. 1, […], female BALB/c mice were obtained from Charles River Laboratories (Wilmington, Mass.). The mice were randomized into 2 groups of 10 prior to treatment. Animals were housed 5 per cage in micro-isolators and allowed to acclimatize for 4 days prior to dosing. Animal were given food and water ad libitum with a 12 hour light/12 hour dark schedule.
Animals in the control group were initially injected intraperitoneally with saline. Animals in the LPS group were injected intraperitoneally with a single dose of 2.5 mg/kg lipopolysaccharide on dayl.

IL-6 = IL-6 levels in etoposide-treated animals; format: in vivo, mice; conditions: increasing etoposide dosing (0, 50 or 60 mg/kg); FIG. 3
Method: An animal model has been developed to screen for drugs which are efficacious in the treatment, alleviation and/or prevention of chronic fatigue syndrome, such as cancer treatment-related fatigue (“CTRF”). […] The animal's overall activity is measured using a running wheel or other method. In addition, the animal's day and night activity profiles are measured to determine when disrupted sleep architecture is present. This is characterized by disruption of the REM sleep as well as fatigue and cognitive dysfunction. The animal's percent daily weight change is also determined. The levels of cytokines such as IL-6 can be measured, since these are typically elevated with chemotherapy treatment. […]
as §1, with “[…], […],” for “2. mice treated with a single intraperitoneal dose of 60 mg/kg etoposide on day 1, and 3. mice treated with a single intraperitoneal dose of 60 mg/kg etoposide on day 1,”

[1] = etoposide, over time in days, FIG. 5

With `CC(=O)CCCCn1c(=O)c2c(ncn2C)n(C)c1=O` [Pentoxifylline] the total locomotor activity (BALB/c mice; animals treated with 60 mg etoposide/kg, then daily oral pentoxifylline 1 mg/kg in drinking water, FIG. 6) was “improves activity”, the “12 hour dark activity over time (weeks)” value (BALB/c mice; etoposide treated followed by pentoxifylline 1 mg/kg daily oral vs etoposide treated and untreated control, FIG. 7A) was “significantly increase nocturnal activity” and the “12 hour light activity over time (weeks)” value (BALB/c mice; etoposide treated followed by pentoxifylline 1 mg/kg daily oral vs etoposide treated and untreated control, FIG. 7B) was “decrease activity when animals should be sleeping”.
In the case of lipopolysaccharide [LPS], the “total daily activity (counts/group) per day” value (female BALB/c mice) is reported as “decreased activity indicative of fatigue”.
In the case of `COc1cc([C@@H]2c3cc4c(cc3[C@@H](O[C@@H]3O[C@@H]5CO[C@@H](C)O[C@H]5[C@H](O)[C@H]3O)[C@H]3COC(=O)[C@H]23)OCO4)cc(OC)c1O` [etoposide], the “total locomotor activity over time (weeks)” value (BALB/c mice; 60 mg etoposide/kg single intraperitoneal dose, FIG. 2) is reported as “decreased total activity over time of treatment”, the “fatigue (percent of baseline) over time (weeks)” value (BALB/c mice; 60 mg etoposide/kg, 12 hour dark cycle or 12 hour light cycle, FIG. 4) is reported as “decreased activity” and the “activity counts (shift of circadian rhythm)” value (BALB/c mice; [1]) is reported as “decreased activity, which was more pronounced during the evening”. For the same compound, the “percent daily weight change (shift of circadian rhythm)” value (BALB/c mice; [1]) was “weight loss”, the “dependence of the observed results on anemia (blood chemistry)” value (BALB/c mice; mice treated with etoposide) was “independent of anemia” and the “levels of IL-6” value (IL-6) was “increased levels of IL-6”.
